ChEMBL document CHEMBL1125385, “Novel inhibitors of prolyl 4-hydroxylase. 2. 5-Amide substituted pyridine-2-carboxylic acids” (J Med Chem, 1992)

test system: Prolyl 4-hydroxylase (Gallus gallus); experiment: Inhibition of Prolyl 4-hydroxylase activity in cultured embryonic chick tendon cells; NA=Not active; call rule not given here

Q: How did the IC50 turn out when COc1ccccc1NC(=O)c1ccc(C(=O)O)nc1 was run?
A: Not Active

Q: Which IC50 does the source give for O=C(O)c1ccc(NC(=O)c2ccccc2F)cn1 here?
A: Not Active

Q: With Cc1ccc(NC(=O)c2ccc(C(=O)O)nc2)cc1 as the compound, how does the IC50 read?
A: Not Active

Q: For CN(C)c1ccc(NC(=O)c2ccc(C(=O)O)nc2)cc1, which IC50 is on record?
A: Not Active

Q: O=C(Nc1ccccc1Cl)c1ccc(C(=O)O)nc1 was tested. Which IC50 did it give?
A: Not Active

Q: Which IC50 does the source give for CCOc1ccc(C(=O)Nc2ccc(C(=O)O)nc2)cc1 here?
A: Not Active

Q: Which IC50 does the source give for CN(C)c1ccc(C(=O)Nc2ccc(C(=O)O)nc2)cc1 here?
A: Not Active

Q: With COc1ccc(NC(=O)c2ccc(C(=O)O)nc2)c(OC)c1 as the compound, how does the IC50 read?
A: Not Active
